# Reference: ChEMBL document CHEMBL3885881, “DrugMatrix”
# Species on record: Rattus norvegicus
# Assay: DrugMatrix - Regimen: Daily Repeat
# Format: toxicity, organism-based, Sprague-Dawley
# Design: regimen Daily Repeat, gender Male, age 6-8 weeks
# Conditions: in vivo, sc, route subcutaneous, […]; for ABSOLUTE BASOPHIL / ABSOLUTE EOSINOPHIL / ABSOLUTE LYMPHOCYTE / ABSOLUTE MONOCYTE / ABSOLUTE SEGMENTED NEUTROPHIL / BASOPHIL / EOSINOPHIL / ERYTHROCYTE COUNT / HEMATOCRIT / HEMOGLOBIN / LEUKOCYTE COUNT / LYMPHOCYTE / MEAN CORPUSCULAR HEMOGLOBIN / MEAN CORPUSCULAR HEMOGLOBIN CONCENTRATION / MEAN CORPUSCULAR VOLUME / MONOCYTE / NEUTROPHIL / NUCLEATED RED BLOOD CELLS / PLATELET COUNT: tissue Blood; for ALANINE AMINOTRANSFERASE / ALBUMIN / ALKALINE PHOSPHATASE / ASPARTATE AMINOTRANSFERASE / BLOOD UREA NITROGEN / CARBON DIOXIDE / CHLORIDE / CHOLESTEROL / CREATINE PHOSPHOKINASE / CREATININE / GLUCOSE / LACTATE DEHYDROGENASE / LIPASE / PHOSPHORUS / POTASSIUM / SODIUM / TOTAL BILIRUBIN / TOTAL PROTEIN / URIC ACID: tissue Plasma
# [1] = 3 mg/kg, 72 h, dose level Low, time 3 day
# [2] = 3 mg/kg, 120 h, dose level Low, time 5 day
# [3] = 1500 mg/kg, 72 h, dose level High, time 3 day
# [4] = 1500 mg/kg, 120 h, dose level High, time 5 day
smiles,measurement,setting,value
Clc1ccc(CO/N=C(\Cn2ccnc2)c2ccc(Cl)cc2Cl)c(Cl)c1 [OXICONAZOLE],ABSOLUTE BASOPHIL,[1],0 CELLS/uL
same,ABSOLUTE EOSINOPHIL,[1],0 CELLS/uL
same,ABSOLUTE LYMPHOCYTE,[1],11885.67 CELLS/uL
same,ABSOLUTE MONOCYTE,[1],211.33 CELLS/uL
same,ABSOLUTE SEGMENTED NEUTROPHIL,[1],736.33 CELLS/uL
same,BASOPHIL,[1],0%
same,EOSINOPHIL,[1],0%
same,ERYTHROCYTE COUNT,[1],5.9 x10E6/uL
same,HEMATOCRIT,[1],37.23%
same,HEMOGLOBIN,[1],14.13 G/DL
same,LEUKOCYTE COUNT,[1],12.83 x10E3/uL
same,LYMPHOCYTE,[1],92.33%
same,MEAN CORPUSCULAR HEMOGLOBIN,[1],24 pg
same,MEAN CORPUSCULAR HEMOGLOBIN CONCENTRATION,[1],38 G/DL
same,MEAN CORPUSCULAR VOLUME,[1],63.17 fL
same,MONOCYTE,[1],1.67%
same,NEUTROPHIL,[1],6%
same,NUCLEATED RED BLOOD CELLS,[1],0 /100WBC
same,PLATELET COUNT,[1],1370 x10E3/uL
same,ALANINE AMINOTRANSFERASE,[1],44 u/L
same,ALBUMIN,[1],4.63 G/DL
same,ALKALINE PHOSPHATASE,[1],333.33 u/L
same,ASPARTATE AMINOTRANSFERASE,[1],101.67 u/L
same,BLOOD UREA NITROGEN,[1],18.33 mg/dL
same,CARBON DIOXIDE,[1],21.33 mmol/L
same,CHLORIDE,[1],96 MEQ/L
same,CHOLESTEROL,[1],92.67 mg/dL
same,CREATINE PHOSPHOKINASE,[1],602 u/L
same,CREATININE,[1],0.2 mg/dL
same,GLUCOSE,[1],137 mg/dL
same,LACTATE DEHYDROGENASE,[1],701 u/L
same,LIPASE,[1],10 u/L
same,PHOSPHORUS,[1],12.9 mg/dL
same,POTASSIUM,[1],6.82 MEQ/L
same,SODIUM,[1],140.17 MEQ/L
same,TOTAL BILIRUBIN,[1],0.17 mg/dL
same,TOTAL PROTEIN,[1],6.4 G/DL
same,URIC ACID,[1],1.77 mg/dL
same,ABSOLUTE BASOPHIL,[2],0 CELLS/uL
same,ABSOLUTE EOSINOPHIL,[2],80 CELLS/uL
same,ABSOLUTE LYMPHOCYTE,[2],13140 CELLS/uL
same,ABSOLUTE MONOCYTE,[2],187.67 CELLS/uL
same,ABSOLUTE SEGMENTED NEUTROPHIL,[2],1059 CELLS/uL
same,BASOPHIL,[2],0%
same,EOSINOPHIL,[2],0.67%
same,ERYTHROCYTE COUNT,[2],5.43 x10E6/uL
same,HEMATOCRIT,[2],34.63%
same,HEMOGLOBIN,[2],13.57 G/DL
same,LEUKOCYTE COUNT,[2],14.47 x10E3/uL
same,LYMPHOCYTE,[2],91%
same,MEAN CORPUSCULAR HEMOGLOBIN,[2],25 pg
same,MEAN CORPUSCULAR HEMOGLOBIN CONCENTRATION,[2],39.17 G/DL
same,MEAN CORPUSCULAR VOLUME,[2],63.83 fL
same,MONOCYTE,[2],1.33%
same,NEUTROPHIL,[2],7%
same,NUCLEATED RED BLOOD CELLS,[2],0 /100WBC
same,PLATELET COUNT,[2],1246.67 x10E3/uL
same,ALANINE AMINOTRANSFERASE,[2],45.67 u/L
same,ALBUMIN,[2],4.03 G/DL
same,ALKALINE PHOSPHATASE,[2],333 u/L
same,ASPARTATE AMINOTRANSFERASE,[2],70.33 u/L
same,BLOOD UREA NITROGEN,[2],14 mg/dL
same,CARBON DIOXIDE,[2],27.33 mmol/L
same,CHLORIDE,[2],101 MEQ/L
same,CHOLESTEROL,[2],71.33 mg/dL
same,CREATINE PHOSPHOKINASE,[2],209.67 u/L
same,CREATININE,[2],0.12 mg/dL
same,GLUCOSE,[2],150 mg/dL
same,LACTATE DEHYDROGENASE,[2],187.33 u/L
same,LIPASE,[2],8.67 u/L
same,PHOSPHORUS,[2],11 mg/dL
same,POTASSIUM,[2],6.62 MEQ/L
same,SODIUM,[2],144.57 MEQ/L
same,TOTAL BILIRUBIN,[2],0.23 mg/dL
same,TOTAL PROTEIN,[2],5.9 G/DL
same,URIC ACID,[2],1.23 mg/dL
same,ABSOLUTE BASOPHIL,[3],0 CELLS/uL
same,ABSOLUTE EOSINOPHIL,[3],0 CELLS/uL
same,ABSOLUTE LYMPHOCYTE,[3],11731.33 CELLS/uL
same,ABSOLUTE MONOCYTE,[3],603.33 CELLS/uL
same,ABSOLUTE SEGMENTED NEUTROPHIL,[3],4732 CELLS/uL
same,BASOPHIL,[3],0%
same,EOSINOPHIL,[3],0%
same,ERYTHROCYTE COUNT,[3],4.99 x10E6/uL
same,HEMATOCRIT,[3],31.07%
same,HEMOGLOBIN,[3],12.4 G/DL
same,LEUKOCYTE COUNT,[3],17.07 x10E3/uL
same,LYMPHOCYTE,[3],69.67%
same,MEAN CORPUSCULAR HEMOGLOBIN,[3],24.97 pg
same,MEAN CORPUSCULAR HEMOGLOBIN CONCENTRATION,[3],39.93 G/DL
same,MEAN CORPUSCULAR VOLUME,[3],62.43 fL
same,MONOCYTE,[3],3.67%
same,NEUTROPHIL,[3],26.67%
same,NUCLEATED RED BLOOD CELLS,[3],0 /100WBC
same,PLATELET COUNT,[3],1249.67 x10E3/uL
same,ALANINE AMINOTRANSFERASE,[3],40.33 u/L
same,ALBUMIN,[3],3.03 G/DL
same,ALKALINE PHOSPHATASE,[3],327 u/L
same,ASPARTATE AMINOTRANSFERASE,[3],65.67 u/L
same,BLOOD UREA NITROGEN,[3],12.33 mg/dL
same,CARBON DIOXIDE,[3],22.33 mmol/L
same,CHLORIDE,[3],98.67 MEQ/L
same,CHOLESTEROL,[3],62.67 mg/dL
same,CREATINE PHOSPHOKINASE,[3],173 u/L
same,CREATININE,[3],0.17 mg/dL
same,GLUCOSE,[3],131 mg/dL
same,LACTATE DEHYDROGENASE,[3],217 u/L
same,LIPASE,[3],9 u/L
same,PHOSPHORUS,[3],12.47 mg/dL
same,POTASSIUM,[3],6.61 MEQ/L
same,SODIUM,[3],143.17 MEQ/L
same,TOTAL BILIRUBIN,[3],0.1 mg/dL
same,TOTAL PROTEIN,[3],6.03 G/DL
same,URIC ACID,[3],1.7 mg/dL
same,ABSOLUTE BASOPHIL,[4],0 CELLS/uL
same,ABSOLUTE EOSINOPHIL,[4],0 CELLS/uL
same,ABSOLUTE LYMPHOCYTE,[4],17693 CELLS/uL
same,ABSOLUTE MONOCYTE,[4],655 CELLS/uL
same,ABSOLUTE SEGMENTED NEUTROPHIL,[4],5318.67 CELLS/uL
same,BASOPHIL,[4],0%
same,EOSINOPHIL,[4],0%
same,ERYTHROCYTE COUNT,[4],5.09 x10E6/uL
same,HEMATOCRIT,[4],30.4%
same,HEMOGLOBIN,[4],12.37 G/DL
same,LEUKOCYTE COUNT,[4],23.67 x10E3/uL
same,LYMPHOCYTE,[4],76.67%
same,MEAN CORPUSCULAR HEMOGLOBIN,[4],24.3 pg
same,MEAN CORPUSCULAR HEMOGLOBIN CONCENTRATION,[4],40.7 G/DL
same,MEAN CORPUSCULAR VOLUME,[4],59.73 fL
same,MONOCYTE,[4],3%
same,NEUTROPHIL,[4],20.33%
same,NUCLEATED RED BLOOD CELLS,[4],0.33 /100WBC
same,PLATELET COUNT,[4],1767.33 x10E3/uL
same,ALANINE AMINOTRANSFERASE,[4],33.33 u/L
same,ALBUMIN,[4],2.7 G/DL
same,ALKALINE PHOSPHATASE,[4],254.33 u/L
same,ASPARTATE AMINOTRANSFERASE,[4],66.33 u/L
same,BLOOD UREA NITROGEN,[4],16.67 mg/dL
same,CARBON DIOXIDE,[4],24.33 mmol/L
same,CHLORIDE,[4],103.33 MEQ/L
same,CHOLESTEROL,[4],55.67 mg/dL
same,CREATINE PHOSPHOKINASE,[4],192.33 u/L
same,CREATININE,[4],0.13 mg/dL
same,GLUCOSE,[4],142.33 mg/dL
same,LACTATE DEHYDROGENASE,[4],225.33 u/L
same,LIPASE,[4],7.67 u/L
same,PHOSPHORUS,[4],11.27 mg/dL
same,POTASSIUM,[4],6.81 MEQ/L
same,SODIUM,[4],144.57 MEQ/L
same,TOTAL BILIRUBIN,[4],0.1 mg/dL
same,TOTAL PROTEIN,[4],5.87 G/DL
same,URIC ACID,[4],1.87 mg/dL
